Inconclusive results are not listed.

We go through 66 molecules from PubChem BioAssay AID1596 (NINDS Approved Drug Screening Program, 2009).

For the test, the system named is PC12 polyQ huntingtin toxicity, LDH release. In words: mutant huntingtin toxicity rescue agents – PC12 cells, LDH release, LDH100, dose response (AID 1596). For orientation: LDH leaks from cells whose membrane has failed.

In the case of `CCCCCc1cc(O)c2c(c1)OC(C)(C)C1CCC(C)=CC21` (stereo unspecified), the half-maximal effective concentration (EC50) (commonly the concentration that produces a half-maximal response) was 60 µM.
In the case of `CC[C@H]1OC(=O)[C@H](C)[C@@H](O[C@H]2C[C@@](C)(OC)[C@@H](O)[C@H](C)O2)[C@H](C)[C@@H](O[C@@H]2O[C@H](C)C[C@H](N(C)C)[C@H]2O)[C@](C)(O)C[C@@H](C)CN(C)[C@H](C)[C@@H](O)[C@]1(C)O` it was 100 µM; in that of `CNC(=O)Oc1ccc2c(c1)[C@]1(C)CCN(C)[C@@H]1N2C`, 100 µM.
Under `CNc1ccc2oc(C[C@@H]3OC4(CC[C@@H]3C)O[C@H](C(C)C(=O)c3ccc[nH]3)[C@H](C)C[C@H]4C)nc2c1C(=O)O` (stereo partly specified) stands 0.8 µM.
In the case of `O=C1C=CC(=C(c2ccc(O)cc2)c2ccc(O)cc2)C=C1` it was 6 µM; in that of `COc1cc2ccc(=O)oc2cc1O`, 30 µM; in that of `Cc1ccc(C(=O)C(C)CN2CCCCC2)cc1` (stereo unspecified), 6 µM.
For `CC(=O)Nc1ccc(S(=O)(=O)Nc2ccc([N+](=O)[O-])cc2)cc1`, the EC50 was 20 µM.
Under `O=c1c2ccccc2[se]n1-c1ccccc1` stands 6 µM; under `CCOc1ccc2c(c1)C(C)=CC(C)(C)N2`, 8 µM.
As for `C[C@@H]1C[C@@H]([C@H](O)CC2CC(=O)NC(=O)C2)C(=O)[C@@H](C)C1`, the EC50 was 0.2 µM.
As for `CC(C)CC1C(=O)N2CCC[C@H]2C2(O)O[C@](NC(=O)C3C=C4c5cccc6[nH]c(Br)c(c56)C[C@H]4N(C)C3)(C(C)C)C(=O)N12` (stereo partly specified), the EC50 is 30 µM.
In the case of `CCCCCCCCCCCCCCCCCC(=O)OC(CC(=O)O)C[N+](C)(C)C` (stereo unspecified) it was 100 µM.
Under `NC(=O)N/N=C/c1ccc([N+](=O)[O-])o1` stands 20 µM; under `C[C@H]1c2cccc(O)c2C(O)=C2C(=O)[C@]3(O)C(O)=C(C(N)=O)C(=O)[C@@H](N(C)C)[C@@H]3[C@@H](O)[C@@H]21`, 60 µM.
In the case of `CC1(C)O[C@@H]2CC3C4C[C@H](F)C5=CC(=O)C=CC5(C)C4C(O)CC3(C)[C@]2(C(=O)CO)O1` (stereo partly specified) it was 100 µM; in that of `C=C1C(=O)OC2C1CCC1(C)CCC=C(C)C21` (stereo unspecified), 4 µM.
As for `COc1ccc(C[C@H](N)C(=O)N[C@@H]2[C@@H](CO)OC(n3cnc4c(N(C)C)ncnc43)[C@@H]2O)cc1` (stereo partly specified), the EC50 is 10 µM.
Consider `CO/N=C(/C(=O)N[C@@H]1C(=O)N2C(C(=O)O)=C(COC(C)=O)CS[C@H]12)c1csc(N)n1`, for which the EC50 is 6 µM.
Under `CC(C)=CCCC1(C)C=Cc2c(O)c3c(c(CC=C(C)C)c2O1)OC12C(=CC4CC1C(C)(C)OC2(C/C=C(/C)C(=O)O)C4=O)C3=O` (stereo unspecified) stands 0.3 µM; under `Cc1cc(C2CCCCC2)n(O)c(=O)c1`, 2.5 µM.
Under `CC[n+]1c(-c2ccccc2)c2cc(N)ccc2c2ccc(N)cc21` stands 4 µM; under `OCCN1CCN(CCCN2c3ccccc3Sc3ccc(Cl)cc32)CC1`, 100 µM; under `C[C@@]1(C(=O)O)CC[C@]2(C)CC[C@]3(C)C4=CC=C5C=C(O)C(=O)C=C5[C@]4(C)CC[C@@]3(C)[C@@H]2C1`, 0.5 µM.
For `O=C(O)c1cc2cc(Cc3cccnc3)ccc2o1`, the EC50 was 20 µM.
On to `O=c1[nH]c2ccccc2n1C1CCN(CCCC(c2ccc(F)cc2)c2ccc(F)cc2)CC1`, for which the EC50 was 30 µM.
Consider `CC(C)C(=O)Nc1ccc([N+](=O)[O-])c(C(F)(F)F)c1`, for which the EC50 was 4 µM.
In the case of `CC(=O)OCC(=O)[C@@]1(O)[C@H](C)CC2C3CCC4=CC(=O)C=C[C@]4(C)[C@@]3(F)[C@@H](O)C[C@@]21C` (stereo partly specified) it was 0.8 µM.
Regarding `CC[C@@]1(O)C[C@H](OC2CC(N(C)C)C(OC3CC(O)C(OC4CCC(=O)C(C)O4)C(C)O3)C(C)O2)c2c(cc3c(c2O)C(=O)c2c(O)cccc2C3=O)[C@H]1C(=O)OC` (stereo partly specified), the EC50 was 4 µM.
In the case of `CN(C)[C@@H]1C(=O)C(C(N)=O)=C(O)[C@@]2(O)C(=O)C3=C(O)c4c(O)cccc4[C@@](C)(O)[C@H]3[C@H](O)[C@@H]12` it was 100 µM.
Under `CN(C)c1ccc(C(=C2C=CC(=[N+](C)C)C=C2)c2ccc(N(C)C)cc2)cc1` stands 0.2 µM.
In the case of `CC(Cc1ccc(O)c(O)c1)C(C)Cc1ccc(O)c(O)c1` (stereo unspecified) it was 8 µM; in that of `CO[C@@H]1C[C@@H](C[C@H]2CC[C@H](C)[C@H]([C@@H](C)C(=O)O)O2)O[C@]2(O[C@](C)([C@H]3CC[C@@](C)(C4O[C@@H](C5O[C@@](O)(CO)[C@H](C)C[C@@H]5C)C[C@@H]4C)O3)C[C@H]2C)[C@@H]1C` (stereo partly specified), 4 µM; in that of `CCCCCc1cc(O)c2c(c1)OC(C)(C)c1ccc(C)cc1-2`, 40 µM.
`CC(=O)c1c(O)c(C)c(O)c2c1OC1=CC(=O)C(C(C)=O)C(=O)C12C` (stereo unspecified): the EC50 was 60 µM.
In the case of `CN[C@@H]1[C@H](OC2[C@H](O[C@H]3[C@H](O)[C@@H](O)[C@H](N=C(N)N)[C@@H](O)[C@@H]3N=C(N)N)O[C@@H](C)[C@]2(O)C=O)O[C@@H](CO)[C@H](O)[C@H]1O` (stereo partly specified) it was 100 µM; in that of `O=C(Nc1ccc([N+](=O)[O-])cc1Cl)c1cc(Cl)ccc1O`, 1 µM; in that of `CCCCCc1cc(O)c2c(c1)OC(C)(C)C1CC=C(C)CC21` (stereo unspecified), 40 µM.
In the case of `NCCCCNCCCN` it was 8 µM; in that of `CN1CCc2c(c3ccccc3n2Cc2ccccc2)C1`, 30 µM; in that of `Oc1cccc2cccnc12`, 20 µM.
In the case of `C[N+](C)(C)CCOC(N)=O` it was 1 µM; in that of `Oc1c(Cl)cc(Cl)c(Cl)c1Cc1c(O)c(Cl)cc(Cl)c1Cl`, 10 µM; in that of `COc1ccc(-c2coc3cc(O)cc(O)c3c2=O)cc1`, 60 µM.
With `O=C1C=C2C(=CCOC2O)O1` (stereo unspecified), the concentration giving a half-maximal response (EC50) was 1 µM.
Under `COC12CC[C@@]3(C[C@@H]1C(C)(O)C(C)(C)C)[C@H]1Cc4ccc(O)c5c4[C@@]3(CCN1CC1CC1)[C@H]2O5` (stereo partly specified) stands 100 µM; under `CC(NCCC(c1ccccc1)c1ccccc1)c1ccccc1` (stereo unspecified), 10 µM.
`Oc1c(Cl)cc(Cl)cc1Sc1cc(Cl)cc(Cl)c1O`: the half-maximal effective concentration (EC50) is 20 µM.
Turning to `CC(C)(C)c1ccc(C(O)CCCN2CCC(C(O)(c3ccccc3)c3ccccc3)CC2)cc1` (stereo unspecified), the EC50 is 8 µM.
In the case of `CC(C)=CCC1=C(O)c2ccccc2C(=O)C1=O` it was 100 µM.
Under `CCCCC(=O)OC1(C(=O)CO)C(C)CC2C3CCC4=CC(=O)C=CC4(C)[C@@]3(F)[C@@H](O)CC21C` (stereo partly specified) stands 60 µM; under `CCCCC[C@H](CC(=O)NO)C(=O)N[C@H](C(=O)N1CCC[C@H]1CO)C(C)C`, 100 µM; under `CC(=O)Oc1ccc(Cl)c2cccnc12`, 8 µM.
Regarding `CCN(CC)CCNc1ccc(CO)c2sc3ccccc3c(=O)c12`, the half-maximal effective concentration (EC50) is 4 µM.
Regarding `CC(NC(=O)C(NC(=O)OCc1ccccc1)C(C)C)C(=O)NC(CC(=O)O)C(=O)OC(F)F` (stereo unspecified), the EC50 was 20 µM.
Under `O=NN(CCCl)C(=O)NCCCl` stands 4 µM; under `C=C[C@H]1CN2CC[C@H]1C[C@@H]2[C@H](O)c1ccnc2ccccc12`, 60 µM.
In the case of `O=C(c1ccccc1)c1ccc2n1CCC2C(=O)O` (stereo unspecified) it was 8 µM; in that of `OCC(S)CS` (stereo unspecified), 10 µM.
In the case of `O=c1cc(-c2ccc(O)cc2)oc2cc(O)cc(O)c12` it was 40 µM; in that of `CO[C@@]12[C@@H]3NC3CN1C1=C(C(=O)C(N)=C(C)C1=O)[C@@H]2COC(N)=O` (stereo partly specified), 2.5 µM.
As for `Nc1c2c(nc3ccccc13)CCCC2`, the EC50 is 60 µM.
In the case of `Nc1c(Br)cc(Br)cc1CNC1CCC(O)CC1` (stereo unspecified), the concentration for a half-maximal effect (EC50) is 100 µM.
Take `CN1CCc2cccc3c2C1Cc1ccc(O)c(O)c1-3` (stereo unspecified): the 50% effective concentration (EC50) is 10 µM.
Under `NC(=NCc1ccccc1)NC(=O)c1nc(Cl)c(N)nc1N` stands 100 µM.
In the case of `CN(C)CCOC(c1ccc(Cl)cc1)c1ccccn1` (stereo unspecified) it was 1.5 µM.
